# In patent publication US6737383B1, “Herbicidal oxadiazolidines” (priority 1999, dated 2004):
# What was measured:
# sugar beet = test: Test B pre/postemergence sugar beet; type: in vivo, Beta vulgaris; settings: for Sugarbeets plant response rating (0 to 10 scale): 0 is no effect
# How it was run: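 Test chemicals in a non-phytotoxic solvent mixture with surfactant were sprayed preemergence onto planted seeds and postemergence onto plants 2 to 18 cm tall (1- to 4-leaf stage). After twelve to sixteen days in a greenhouse, injury was visually rated against untreated controls from 0 (no effect) to 10 (complete control).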
# winter barley = test: Test E winter barley; type: in vivo, Hordeum vulgare; settings: Preemergence
# blackgrass = test: Test E blackgrass; type: in vivo, Alopecurus myosuroides; settings: Preemergence
# winter wheat [1] = test: Test E winter wheat; type: in vivo, Triticum aestivum; settings: Preemergence
# Green foxtail [2] = test: Test D green foxtail; type: in vivo
# How it was run: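 Greenhouse pots, seeds in sandy loam; compounds formulated in non-phytotoxic solvent with surfactant; preemergence treatments went on the soil surface within one day of planting. Injury rated visually 14 to 21 days after application on a 0 (none) to 100 (complete control) scale.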
# rice = test: Test B flood test rice; type: in vivo, Oryza sativa
# How it was run: (§1)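 Each value is a visual injury score relative to controls, with 10 meaning complete control and 0 no effect. Evaluation took place twelve to sixteen days after the 2-leaf-stage plants were treated and kept in the greenhouse.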
# green foxtail [3] = test: Test E green foxtail; type: in vivo, Setaria viridis; settings: Preemergence
# wild oat = test: Test E wild oat; type: in vivo, Avena fatua; settings: Preemergence
# winter wheat [4] = test: Test E winter wheat; type: in vivo, Triticum aestivum; settings: Postemergence
# How it was run: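 Plants were grown under normal greenhouse practice; for postemergence, in sandy loam soil mixed 60:40 with potting mix, treated at the 1- to 4-leaf stage. The compound was in a non-phytotoxic solvent carrying a surfactant. After roughly 21 to 28 days plants were scored visually against untreated plants.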
# bamyardgrass = test: Test B flood test barnyardgrass; type: in vivo, Echinochloa crus-galli
# How it was run: as §1
# duck salad = test: Test B flood test duck salad; type: in vivo, Heteranthera limosa
# How it was run: as §1
# smallflower flatsedge = test: Test B flood test smallflower flatsedge; type: in vivo, Cyperus difformis
# How it was run: as §1
# Italian ryegrass = test: Test E Italian ryegrass; type: in vivo, Lolium multiflorum; settings: Preemergence
# [5] = Postemergence, Rate 125 g/ha, scale of 0 to 10 where 0 is no effect and 10 is complete control
# [6] = Preemergence, Rate 62 g/ha, scale 0 to 10 (0 no effect, 10 complete control)
# [7] = Preemergence, Rate 125 g/ha, 10 is complete control
# [8] = Preemergence, Rate 500 g/ha, scale 0 to 10 (0 no effect, 10 complete control)
# [9] = Rate 62 g/ha, Postemergence, scale of 0 to 10 where 0 is no effect and 10 is complete control
# [10] = Rate 250 g/ha, Postemergence, scale 0 to 10, 0 is no effect, 10 is complete control
# [11] = Rate 62 g/ha, 0 to 100 scale, 0 no effect, 100 complete control
# [12] = Rate 125 g/ha, 0 to 100 scale (0 no effect, 100 complete control)
# [13] = Rate 64 g/ha, Preemergence; 0 to 100 scale, 0 no injury, 100 complete control
# [14] = Rate 125 g/ha, Preemergence; 0 to 100 scale, 0 no injury, 100 complete control
# [15] = Rate 500 g/ha, Preemergence; 0 to 100 scale
# [16] = Postemergence (flood test species), Rate 125 g/ha, scale of 0 to 10 where 0 is no effect and 10 is complete control
# [17] = Rate 62 g/ha, Postemergence section, flood test species, scale of 0 to 10 where 0 is no effect and 10 is complete control
# [18] = Rate 250 g/ha, Postemergence (flood test), scale 0 to 10, 0 is no effect, 10 is complete control
# [19] = Rate 250 g/ha, headed Pre-emergence (flood test species), scale 0 to 10 (0 no effect, 10 complete control)
# [20] = Rate 500 g/ha, headed Pre-emergence (flood test species), scale 0 to 10 (0 no effect, 10 complete control)
# [21] = Rate 500 g/ha, listed under Postemergence (flood test species), scale 0 to 10, 0 no effect, 10 complete control
# [22] = Rate 1000 g/ha, Pre-emergence (as headed), scale 0 to 10
# [23] = Rate 2000 g/ha, Pre-emergence (as headed), scale 0 to 10
# [24] = flood test, listed under Postemergence, Rate 250 g/ha, scale 0 to 10, 0 no effect, 10 complete control
# [25] = Rate 500 g/ha, 0 to 100 scale where 0 is no effect and 100 is complete control
# [26] = Rate 62 g/ha, headed Pre-emergence (flood test species), scale 0 to 10 (0 no effect, 10 complete control)
# [27] = Rate 125 g/ha, Pre-emergence, flood test species, scale 0 to 10 where 0 is no effect and 10 is complete control
smiles,measurement,setting,value
CCn1c(=O)on(C(=O)N(c2ccccc2)C(C)C)c1=O [Compound 117],Sugarbeets plant response rating,sugar beet; [5],0
same,Sugarbeets plant response rating,sugar beet; [6],0
same,Sugarbeets plant response rating (0 to 10 scale),sugar beet; [7],8
same,"Plant response rating, Sugarbeets","sugar beet; Preemergence, Rate 250 g/ha, scale of 0 to 10 where 0 is no effect and 10 is complete control",9
same,Sugarbeets plant response rating,sugar beet; [8],10
same,Sugarbeets plant response rating,sugar beet; [9],0
same,"Plant response rating, Sugarbeets",sugar beet; [10],3
same,Sugarbeets plant response rating,"sugar beet; Rate 500 g/ha, Postemergence, scale 0 to 10, 0 no effect, 10 complete control",7
same,"Plant response rating, Barley (winter)",winter barley; [11],25
same,"Plant response rating, Barley (winter)",winter barley; [12],20
same,"Plant response rating, Barley (winter)","winter barley; Rate 250 g/ha, 0 to 100 scale",30
same,"Plant response rating, Blackgrass",blackgrass; [11],50
same,"Plant response rating, Blackgrass",blackgrass; [12],50
same,"Plant response rating, Blackgrass","blackgrass; Rate 250 g/ha, 0 to 100 scale",60
same,"Plant response rating, Wheat (winter)",winter wheat [1]; [11],30
same,"Plant response rating, Wheat (winter)",winter wheat [1]; [12],60
same,"Plant response rating, Wheat (winter)","winter wheat [1]; Rate 250 g/ha, 0 to 100 scale",90
same,Green foxtail plant response rating,Green foxtail [2]; [13],100
same,"Plant response rating, Green foxtail",Green foxtail [2]; [13],100
same,Green foxtail plant response rating,Green foxtail [2]; [14],100
same,"Plant response rating, Green foxtail",Green foxtail [2]; [14],100
same,"Plant response rating, Green foxtail",Green foxtail [2]; [15],100
same,Rice plant response rating,rice; [16],0
same,Rice plant response rating,rice; [17],0
same,"Plant response rating, Rice",rice; [18],0
same,Rice plant response rating,rice; [19],0
same,"Plant response rating, Rice",rice; [20],0
same,Rice plant response rating,rice; [21],0
same,Rice plant response rating,rice; [22],0
same,Rice plant response rating,rice; [23],0
same,"Plant response rating, Green foxtail",green foxtail [3]; [11],50
same,"Plant response rating, Green foxtail",green foxtail [3]; [12],60
same,"Plant response rating, Green foxtail","green foxtail [3]; Rate 250 g/ha, 0 to 100 scale",80
same,"Plant response rating, Wild oat",wild oat; [11],20
same,"Plant response rating, Wild oat",wild oat; [12],20
same,"Plant response rating, Wheat (winter)","winter wheat [4]; Rate 62 g/ha, 0 to 100 scale",0
same,"Plant response rating, Wheat (winter)","winter wheat [4]; Rate 125 g/ha, 0 to 100 scale",10
same,"Plant response rating, Wheat (winter)","winter wheat [4]; Rate 250 g/ha, 0 to 100 scale (0 no effect, 100 complete control)",25
same,Barnyardgrass plant response rating,"bamyardgrass; Postemergence, Rate 62 g/ha, scale 0 to 10, 0 is no effect, 10 is complete control",0
same,Barnyardgrass plant response rating,"bamyardgrass; Rate 125 g/ha, Postemergence section (flood test species), scale 0 to 10, 0 no effect, 10 complete control",0
same,Barnyardgrass plant response rating,bamyardgrass; [19],0
same,"Plant response rating, Barnyardgrass",bamyardgrass; [20],0
same,Barnyardgrass plant response rating,bamyardgrass; [21],3
same,Barnyardgrass plant response rating,bamyardgrass; [22],0
same,Barnyardgrass plant response rating,"bamyardgrass; Rate 2000 g/ha, Pre-emergence (as headed), scale 0 to 10, 0 no effect, 10 complete control",3
same,Barnyardgrass plant response rating,bamyardgrass; [24],2
same,Ducksalad plant response rating,duck salad; [16],0
same,Ducksalad plant response rating,duck salad; [17],0
same,Ducksalad plant response rating,duck salad; [19],0
same,"Plant response rating, Ducksalad",duck salad; [20],0
same,Ducksalad plant response rating,duck salad; [21],0
same,Ducksalad plant response rating,duck salad; [22],0
same,Ducksalad plant response rating,duck salad; [23],1
same,Ducksalad plant response rating,duck salad; [24],0
same,S. Flatsedge plant response rating,smallflower flatsedge; [16],0
same,S. Flatsedge plant response rating,"smallflower flatsedge; Pre-emergence, Rate 1000 g/ha, scale 0 to 10 (0 no effect, 10 complete control)",0
same,S. Flatsedge plant response rating,smallflower flatsedge; [17],0
same,"Plant response rating, S. Flatsedge",smallflower flatsedge; [18],0
same,S. Flatsedge plant response rating,smallflower flatsedge; [19],0
same,"Plant response rating, S. Flatsedge",smallflower flatsedge; [20],0
same,S. Flatsedge plant response rating,smallflower flatsedge; [21],0
same,S. Flatsedge plant response rating,smallflower flatsedge; [23],4
same,"Plant response rating, I. Ryegrass",Italian ryegrass; [11],50
same,"Plant response rating, I. Ryegrass",Italian ryegrass; [12],45
same,"Plant response rating, I. Ryegrass","Italian ryegrass; Rate 250 g/ha, 0 to 100 scale",85
CC(C)N(C(=O)n1oc(=O)n(C(C)C)c1=O)c1ccc(F)cc1 [Compound 131],Sugarbeets plant response rating,sugar beet; [5],3
same,Sugarbeets plant response rating,sugar beet; [6],7
same,Sugarbeets plant response rating (0 to 10 scale),sugar beet; [7],8
same,Sugarbeets plant response rating,"sugar beet; Preemergence, Rate 250 g/ha, scale 0 to 10, 0 is no effect, 10 is complete control",10
same,Sugarbeets plant response rating,sugar beet; [8],10
same,Sugarbeets plant response rating,sugar beet; [9],2
same,"Plant response rating, Sugarbeets",sugar beet; [10],6
same,Sugarbeets plant response rating,"sugar beet; Rate 500 g/ha, Postemergence, scale 0 to 10",8
same,"Plant response rating, Barley (winter)",winter barley; [11],40
same,"Plant response rating, Barley (winter)",winter barley; [12],65
same,Barley (winter) plant response rating (0 to 100 scale),winter barley; Rate 250 g/ha,100
same,"Plant response rating, Barley (winter)",winter barley; [25],100
same,"Plant response rating, Blackgrass",blackgrass; [11],60
same,"Plant response rating, Blackgrass",blackgrass; [12],50
same,Blackgrass plant response rating (0 to 100 scale),blackgrass; Rate 250 g/ha,60
same,"Plant response rating, Blackgrass",blackgrass; [25],100
same,"Plant response rating, Wheat (winter)",winter wheat [1]; [11],50
same,"Plant response rating, Wheat (winter)",winter wheat [1]; [12],35
same,Wheat (winter) plant response rating (0 to 100 scale),winter wheat [1]; Rate 250 g/ha,60
same,"Plant response rating, Wheat (winter)",winter wheat [1]; [25],95
same,"Plant response rating, Green foxtail","Green foxtail [2]; Preemergence; Rate 16 g/ha; 0 to 100 scale, 0 no injury, 100 complete control",90
same,"Plant response rating, Green foxtail","Green foxtail [2]; Preemergence; Rate 32 g/ha; 0 to 100 scale, 0 no injury, 100 complete control",100
same,"Plant response rating, Green foxtail","Green foxtail [2]; Rate 16 g/ha; Preemergence; 0 to 100 scale, 0 no injury, 100 complete control",90
same,Green foxtail plant response rating,Green foxtail [2]; [13],100
same,"Plant response rating, Green foxtail",Green foxtail [2]; [13],100
same,Green foxtail plant response rating,Green foxtail [2]; [14],100
same,"Plant response rating, Green foxtail",Green foxtail [2]; [14],100
same,"Plant response rating, Green foxtail",Green foxtail [2]; Rate 250 g/ha; Preemergence; 0 to 100 scale,100
same,"Plant response rating, Green foxtail",Green foxtail [2]; [15],100
same,Rice plant response rating,rice; [26],0
same,Rice plant response rating,rice; [27],0
same,Rice plant response rating,rice; [19],5
same,"Plant response rating, Rice",rice; [20],8
same,"Plant response rating, Green foxtail",green foxtail [3]; [11],60
same,"Plant response rating, Green foxtail",green foxtail [3]; [12],100
same,Green foxtail plant response rating (0 to 100 scale),green foxtail [3]; Rate 250 g/ha,100
same,"Plant response rating, Wild oat",wild oat; [11],50
same,"Plant response rating, Wild oat",wild oat; [12],50
same,Wild oat plant response rating (0 to 100 scale),wild oat; Rate 250 g/ha,60
same,"Plant response rating, Wild oat",wild oat; [25],100
same,"Plant response rating, Wheat (winter)","winter wheat [4]; Rate 62 g/ha, 0 to 100 scale",50
same,"Plant response rating, Wheat (winter)","winter wheat [4]; Rate 125 g/ha, 0 to 100 scale",60
same,"Plant response rating, Wheat (winter)","winter wheat [4]; Rate 500 g/ha, 0 to 100 scale, 0 no effect, 100 complete control",20
same,Wheat (winter) plant response rating,"winter wheat [4]; Rate 250 g/ha, 0 to 100 scale where 0 is no effect and 100 is complete control",0
same,Barnyardgrass plant response rating,bamyardgrass; [26],0
same,Barnyardgrass plant response rating,bamyardgrass; [27],0
same,Barnyardgrass plant response rating,bamyardgrass; [19],9
same,"Plant response rating, Barnyardgrass",bamyardgrass; [20],9
same,Ducksalad plant response rating,duck salad; [26],0
same,Ducksalad plant response rating,duck salad; [27],0
same,Ducksalad plant response rating,duck salad; [19],7
same,"Plant response rating, Ducksalad",duck salad; [20],9
same,S. Flatsedge plant response rating,smallflower flatsedge; [26],0
same,S. Flatsedge plant response rating,smallflower flatsedge; [27],3
same,S. Flatsedge plant response rating,smallflower flatsedge; [19],8
same,"Plant response rating, S. Flatsedge",smallflower flatsedge; [20],8
same,"Plant response rating, I. Ryegrass",Italian ryegrass; [11],70
same,"Plant response rating, I. Ryegrass",Italian ryegrass; [12],100
same,I. Ryegrass plant response rating (0 to 100 scale),Italian ryegrass; Rate 250 g/ha,100
same,"Plant response rating, I. Ryegrass",Italian ryegrass; [25],100
